Two substances from patent US20120083522A1, “MODULATION OF INFLAMMATORY RESPONSES BY FACTOR XI” (Isis Pharmaceuitcals, inc., priority 2009, published 2012) can be followed below.

One data set deals with human Factor XI mRNA. Nature of the data set: Antisense inhibition in HepG2 cells by microwalk gapmers, 75 nM, lipofectin (Example 3). Type of data set: cell-based. The note with it: HepG2 cells, 75 nM, oligonucleotides targeted to nucleobases 1275 to 1318 of SEQ ID NO: 1. Put shortly:
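HepG2 cells (10,000 per well) were transfected with 75 nM gapmer using lipofectin and treated for about 24 h. Factor XI mRNA was quantified by real-time PCR, normalized to RiboGreen total RNA and expressed as percent inhibition versus untreated controls.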
Take “416999 (antisense GCACAGTTTCTGGCAGGCCT; 2-13-5 gapmer, wing sugar chemistry not given here, further chemistry not given here) [compound 416999]”: the “% inhibition of human Factor XI mRNA levels” value was determined as 92%.
Consider “417003 (antisense TGGTGCACAGTTTCTGGCAG; 2-13-5 gapmer, wing sugar chemistry not given here, further chemistry not given here) [compound 417003]”, for which the “% inhibition of human Factor XI mRNA levels” value was 89%.

A further data set concerns human Factor XI mRNA. Briefly: Dose-dependent inhibition in HepB3 cells, lipofectin (Example 7). To be noted: 2.3 nM, approx. 16 h. Type of data set: cell-based. How it is done:
Cells were plated at a density of 4,000 cells per well and transfected using lipofectin reagent with 2.3 nM, 4.7 nM, 9.4 nM, 18.75 nM, 37.5 nM, and 75 nM concentrations of antisense oligonucleotide, as specified in Table 14. After a treatment period of approximately 16 hours, RNA was isolated from the cells and human Factor XI mRNA levels were measured by quantitative real-time PCR. Human Factor XI primer probe set RTS 2966 was used to measure mRNA levels. Factor XI mRNA levels were adjusted according to total RNA content, as measured by RIBOGREEN®. Results are presented as percent inhibition of Factor XI, relative to untreated control cells.
As to “416999 (antisense GCACAGTTTCTGGCAGGCCT; 2-13-5 gapmer, wing sugar chemistry not given here, further chemistry not given here) [compound 416999]”, the “percent inhibition of human Factor XI mRNA” value (“percent inhibition” below) was 19%.
On to “417003 (antisense TGGTGCACAGTTTCTGGCAG; 2-13-5 gapmer, wing sugar chemistry not given here, further chemistry not given here) [compound 417003]”, for which the “percent inhibition” value is listed as 11%.

Still in this data set, the particulars now being: 4.7 nM, approx. 16 h.
On to “416999 (antisense GCACAGTTTCTGGCAGGCCT; 2-13-5 gapmer, wing sugar chemistry not given here, further chemistry not given here) [compound 416999]”, for which the “percent inhibition” value was determined as 33%.
On to “417003 (antisense TGGTGCACAGTTTCTGGCAG; 2-13-5 gapmer, wing sugar chemistry not given here, further chemistry not given here) [compound 417003]”, for which the “percent inhibition” value came out at 28%.

The same data set, now with this note: 9.4 nM, approx. 16 h.
For the substance “416999 (antisense GCACAGTTTCTGGCAGGCCT; 2-13-5 gapmer, wing sugar chemistry not given here, further chemistry not given here) [compound 416999]”, the “percent inhibition” value worked out at 42%.
As for “417003 (antisense TGGTGCACAGTTTCTGGCAG; 2-13-5 gapmer, wing sugar chemistry not given here, further chemistry not given here) [compound 417003]”, the “percent inhibition” value worked out at 40%.

Staying with this data set, now noted: 18.75 nM, approx. 16 h.
Turning to “416999 (antisense GCACAGTTTCTGGCAGGCCT; 2-13-5 gapmer, wing sugar chemistry not given here, further chemistry not given here) [compound 416999]”, the “percent inhibition” value is given as 60%.
As to “417003 (antisense TGGTGCACAGTTTCTGGCAG; 2-13-5 gapmer, wing sugar chemistry not given here, further chemistry not given here) [compound 417003]”, the “percent inhibition” value is on record as 40%.

The data set is the same for the next values; noted with them: 37.5 nM, approx. 16 h.
For the substance “416999 (antisense GCACAGTTTCTGGCAGGCCT; 2-13-5 gapmer, wing sugar chemistry not given here, further chemistry not given here) [compound 416999]”, the “percent inhibition” value is recorded as 71%.
Take “417003 (antisense TGGTGCACAGTTTCTGGCAG; 2-13-5 gapmer, wing sugar chemistry not given here, further chemistry not given here) [compound 417003]”: the “percent inhibition” value amounted to 63%.

The same data set, now with this note: 75 nM, approx. 16 h.
For “416999 (antisense GCACAGTTTCTGGCAGGCCT; 2-13-5 gapmer, wing sugar chemistry not given here, further chemistry not given here) [compound 416999]”, the “percent inhibition” value is 59%.
On to “417003 (antisense TGGTGCACAGTTTCTGGCAG; 2-13-5 gapmer, wing sugar chemistry not given here, further chemistry not given here) [compound 417003]”, for which the “percent inhibition” value is recorded as 58%.

System in another data set: not listed separately
Briefly: Tolerability in Sprague-Dawley rats: body and organ weight (Example 19). To be noted: 50 mg/kg s.c. twice per week for 6 weeks, change over weight at start of study. Type of data set: in vivo. The text has this:
Urine samples were taken before the start of treatment.
The body weights are presented in Table 78 and are expressed as a percent change over the weights taken at the start of the study.
For “416999 (antisense GCACAGTTTCTGGCAGGCCT; 2-13-5 gapmer, wing sugar chemistry not given here, further chemistry not given here) [compound 416999]”, the “Percent change in Body weight” value is recorded as −37%.
Still for that read-out and setting: as for “417003 (antisense TGGTGCACAGTTTCTGGCAG; 2-13-5 gapmer, wing sugar chemistry not given here, further chemistry not given here) [compound 417003]”, the figure is −40%.

For the next data set, the system named is human Factor XI mRNA. Nature of the data set: Dose-dependent inhibition in HepB3 cells, electroporation (Example 7). It counts as cell-based. To be noted: 41.15 nM, approx. 16 h. How it is done: The gapmers were also transfected via electroporation and their dose dependent inhibition of human Factor XI mRNA was measured. Cells were plated at a density of 20,000 cells per well and transfected via electroporation with 41.15 nM, 123.457 nM, 370.37 nM, 1111.11 nM, 3333.33 nM, and 10,000 nM concentrations of antisense oligonucleotide, as specified in Table 15. After a treatment period of approximately 16 hours, RNA was isolated from the cells and human Factor XI mRNA levels were measured by quantitative real-time PCR. Human Factor XI primer probe set RTS 2966 was used to measure mRNA levels. Factor XI mRNA levels were adjusted according to total RNA content, as measured by RIBOGREEN®. Results are presented as percent inhibition of human Factor XI, relative to untreated control cells.
Turning to “416999 (antisense GCACAGTTTCTGGCAGGCCT; 2-13-5 gapmer, wing sugar chemistry not given here, further chemistry not given here) [compound 416999]”, the “percent inhibition” value stood at 31%.
With “417003 (antisense TGGTGCACAGTTTCTGGCAG; 2-13-5 gapmer, wing sugar chemistry not given here, further chemistry not given here) [compound 417003]”, the “percent inhibition” value came out at 31%.

Staying with this data set, now noted: 123.457 nM, approx. 16 h.
Regarding “416999 (antisense GCACAGTTTCTGGCAGGCCT; 2-13-5 gapmer, wing sugar chemistry not given here, further chemistry not given here) [compound 416999]”, the “percent inhibition” value was 45%.
On to “417003 (antisense TGGTGCACAGTTTCTGGCAG; 2-13-5 gapmer, wing sugar chemistry not given here, further chemistry not given here) [compound 417003]”, for which the “percent inhibition” value was 0%.

Staying with this data set, now noted: 370.37 nM, approx. 16 h.
For the substance “416999 (antisense GCACAGTTTCTGGCAGGCCT; 2-13-5 gapmer, wing sugar chemistry not given here, further chemistry not given here) [compound 416999]”, the “percent inhibition” value was found to be 62%.
Consider “417003 (antisense TGGTGCACAGTTTCTGGCAG; 2-13-5 gapmer, wing sugar chemistry not given here, further chemistry not given here) [compound 417003]”, for which the “percent inhibition” value was found to be 15%.

The same data set, now with this note: 1111.11 nM, approx. 16 h.
In the case of “416999 (antisense GCACAGTTTCTGGCAGGCCT; 2-13-5 gapmer, wing sugar chemistry not given here, further chemistry not given here) [compound 416999]”, the “percent inhibition” value was 78%.
On to “417003 (antisense TGGTGCACAGTTTCTGGCAG; 2-13-5 gapmer, wing sugar chemistry not given here, further chemistry not given here) [compound 417003]”, for which the “percent inhibition” value came out at 43%.

Staying with this data set, now noted: 3333.33 nM, approx. 16 h.
“416999 (antisense GCACAGTTTCTGGCAGGCCT; 2-13-5 gapmer, wing sugar chemistry not given here, further chemistry not given here) [compound 416999]”: the “percent inhibition” value is 94%.
Same read-out and setting: to “417003 (antisense TGGTGCACAGTTTCTGGCAG; 2-13-5 gapmer, wing sugar chemistry not given here, further chemistry not given here) [compound 417003]” belongs 84%.

The data set is the same for the next values; noted with them: 10000 nM, approx. 16 h.
On to “416999 (antisense GCACAGTTTCTGGCAGGCCT; 2-13-5 gapmer, wing sugar chemistry not given here, further chemistry not given here) [compound 416999]”, for which the “percent inhibition” value is given as 97%.
On to “417003 (antisense TGGTGCACAGTTTCTGGCAG; 2-13-5 gapmer, wing sugar chemistry not given here, further chemistry not given here) [compound 417003]”, for which the “percent inhibition” value was determined as 92%.

The test system of a further data set is human Factor XI mRNA. Briefly: Dose-dependent inhibition in cyno primary hepatocytes, electroporation (Example 6). It counts as cell-based, cynomolgus monkey. To be noted: 0.74 nM, approx. 16 h. How it is done:
Cells were plated at a density of 35,000 cells per well and transfected via electroporation with 0.74 nM, 2.2 nM, 6.7 nM, 20 nM, 60 nM, and 180 nM concentrations of antisense oligonucleotide, as specified in Table 13. After a treatment period of approximately 16 hours, RNA was isolated from the cells and human Factor XI mRNA levels were measured by quantitative real-time PCR. Human Factor XI primer probe set RTS 2966 was used to measure mRNA levels. Factor XI mRNA levels were adjusted according to total RNA content, as measured by RIBOGREEN®. Results are presented as percent inhibition of human Factor XI, relative to untreated control cells.
On to “416999 (antisense GCACAGTTTCTGGCAGGCCT; 2-13-5 gapmer, wing sugar chemistry not given here, further chemistry not given here) [compound 416999]”, for which the “percent inhibition” value turned out to be 3%.
In the case of “417003 (antisense TGGTGCACAGTTTCTGGCAG; 2-13-5 gapmer, wing sugar chemistry not given here, further chemistry not given here) [compound 417003]”, the “percent inhibition” value is 12%.

Still in this data set, the particulars now being: 2.2 nM, approx. 16 h.
With “416999 (antisense GCACAGTTTCTGGCAGGCCT; 2-13-5 gapmer, wing sugar chemistry not given here, further chemistry not given here) [compound 416999]”, the “percent inhibition” value was determined as 40%.
For “417003 (antisense TGGTGCACAGTTTCTGGCAG; 2-13-5 gapmer, wing sugar chemistry not given here, further chemistry not given here) [compound 417003]”, the “percent inhibition” value is 18%.

Staying with this data set, now noted: 6.7 nM, approx. 16 h.
Regarding “416999 (antisense GCACAGTTTCTGGCAGGCCT; 2-13-5 gapmer, wing sugar chemistry not given here, further chemistry not given here) [compound 416999]”, the “percent inhibition” value is reported as 36%.
Take “417003 (antisense TGGTGCACAGTTTCTGGCAG; 2-13-5 gapmer, wing sugar chemistry not given here, further chemistry not given here) [compound 417003]”: the “percent inhibition” value was 19%.

The data set is the same for the next values; noted with them: 20 nM, approx. 16 h.
For “416999 (antisense GCACAGTTTCTGGCAGGCCT; 2-13-5 gapmer, wing sugar chemistry not given here, further chemistry not given here) [compound 416999]”, the “percent inhibition” value is given as 62%.
Consider “417003 (antisense TGGTGCACAGTTTCTGGCAG; 2-13-5 gapmer, wing sugar chemistry not given here, further chemistry not given here) [compound 417003]”, for which the “percent inhibition” value stood at 39%.

The data set is the same for the next values; noted with them: 60 nM, approx. 16 h.
Turning to “416999 (antisense GCACAGTTTCTGGCAGGCCT; 2-13-5 gapmer, wing sugar chemistry not given here, further chemistry not given here) [compound 416999]”, the “percent inhibition” value stood at 67%.
For the substance “417003 (antisense TGGTGCACAGTTTCTGGCAG; 2-13-5 gapmer, wing sugar chemistry not given here, further chemistry not given here) [compound 417003]”, the “percent inhibition” value is on record as 58%.

Staying with this data set, now noted: 180 nM, approx. 16 h.
“416999 (antisense GCACAGTTTCTGGCAGGCCT; 2-13-5 gapmer, wing sugar chemistry not given here, further chemistry not given here) [compound 416999]”: the “percent inhibition” value was 82%.
On the same count and under the same terms, as for “417003 (antisense TGGTGCACAGTTTCTGGCAG; 2-13-5 gapmer, wing sugar chemistry not given here, further chemistry not given here) [compound 417003]”, the figure is 74%.
